For series [1], the system named is P. aeruginosa (strain PAO1) whole cells and membrane fractions. Format: binding, Pseudomonas aeruginosa.
Series [2] addresses protein on the surface of whole cells of P. aeruginosa (strain PAO1).
Series [3] has as its system P. aeruginosa PA27853/PLL-EGFP.
In series [4] the test system is P. aeruginosa PAO1. Format: cell-based, Pseudomonas aeruginosa.
Series [5] concerns Endothelial cells. Description: Pretreatment of endothelial cells followed by S1P or HMW PEG challenge (TEER). The class given is cell-based. To be noted: 100 nM PMA; baseline 1250 ohm.
Series [6] concerns intestinal epithelial cells. The settings on record: 0.6% solution; cited from earlier work.
The test system of series [7] is PA-I lectin/adhesin expression in P. aeruginosa. The class given is cell-based, Pseudomonas aeruginosa.
Series [8] has as its system mice inoculated with PA27853. In words: Mice with slow release morphine pellets drinking PA27853.
Series [9] concerns human lung microvessel endothelial cells (HLMVEC). Description: Transendothelial electrical resistance (TEER) by ECIS, HMW PEG in serum-free EBM. Format: cell-based. The settings on record: thrombin 1 U/ml, control cells.
Series [10] relates to HPAECs. Description: Intracellular calcium (Fura-2). The class given is cell-based, human. To be noted: 1 U/ml thrombin; 1 μM S1P.
Series [11] has as its system Caco-2 cells. In words: TEER of Caco-2 monolayers inoculated with PA27853 with IFN-γ. Format: cell-based. The text has this: In addition, strains were exposed to apical media from Caco-2 cells basolaterally exposed to one or more of the various epithelial-derived cytokines. Basolateral exposure of Caco-2 cells to the combination of IFN γ and TNF α activates cellular signaling proteins that dramatically alter tight junctional proteins and function. Media from Caco-2 cells exposed to various combinations of these cytokines had no effect on PA-I expression. However, IFN-γ alone induced a direct effect on PA-I expression while none of the other compounds alone had any effect (FIG. 4). […] Using ELISA, immunofluorescence microscopy, and flow cytometry, the binding characteristics of IFNγ were determined for both whole bacteria and membrane fractions of P. aeruginosa. […] These effects were also observed with strain PAO1. […] This protein can also be immunoprecipitated from E. coli (FIG. 6C). Next, IFN-γ binding specificity to whole bacterial cells was determined using reiterative binding studies in the presence of various gram-negative bacterial strains, including P. aeruginosa. […] Finally, in order to determine if PA-I was functionally expressed in PA27853 in the presence IFN-γ, PA27853 was inoculated onto Caco-2 cell monolayers in the presence of IFN-γ and the effect on barrier dysregulating dynamics of PA27853 against this cell line were assessed to determine if IFN-γ shifted the dynamics. […]

The target in series [12] is T1, OprF (Pseudomonas aeruginosa, UniProt P13794).
T1 sequence (P13794 25-350): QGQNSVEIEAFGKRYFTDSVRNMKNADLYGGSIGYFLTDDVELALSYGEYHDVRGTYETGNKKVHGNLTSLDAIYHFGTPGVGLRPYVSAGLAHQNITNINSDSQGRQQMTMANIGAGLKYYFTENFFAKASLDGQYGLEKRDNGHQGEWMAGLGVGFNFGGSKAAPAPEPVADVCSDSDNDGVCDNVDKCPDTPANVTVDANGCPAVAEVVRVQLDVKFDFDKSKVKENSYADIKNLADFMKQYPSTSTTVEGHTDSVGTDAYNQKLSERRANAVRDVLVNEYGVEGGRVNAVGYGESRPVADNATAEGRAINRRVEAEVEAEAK
In words: Binding of IFN-γ to purified OprF (ELISA). To be noted: dose-dependent. For orientation: ELISA stands for enzyme-linked immunosorbent assay.

The test system of series [13] is rhlI / C4-HSL in P. aeruginosa PAO1. In words: Quorum sensing activation (rhlI mRNA, C4-HSL in supernatants). The class given is cell-based, Pseudomonas aeruginosa.
For series [14], the system named is MDCK monolayers. Description: Purified PA-I on epithelial monolayers (TEER, exotoxin A flux). Format: cell-based.

“Also recorded” adds a separate entry of the source. Like-named read-outs stand apart in the source and are kept apart here.

Consider IL-10: human cytokine, for which, in series [1], the “binding to P. aeruginosa cells / cell membranes (ELISA)” value is on record as “No binding was observed”.

“recombinant human IFN-γ (rH IFN-γ) (from UniProt P01579 24-166) (ligand)” registered a percent of bacterial cells that bound IFN-γ in series [2] of 73%.

For `Nc1ncnc2c1ncn2[C@@H]1O[C@H](COP(=O)(O)OP(=O)(O)O)[C@@H](O)[C@H]1O` [ADP], in series [3], the “PA-I promoter activity / expression (fluorescence)” value (“PA-I promoter activity / expression” below) was “no evident inducing effects”.

Turning to dynorphin, in series [4], the PCN production result is on record as “enhanced PCN production in a dose-dependent manner”.

IL-4: human cytokine: the “binding to P. aeruginosa cells / cell membranes (ELISA)” value in series [1] is recorded as “No binding was observed”.

As to `CCCCCCCCCCCCCC(=O)O[C@@H]1[C@@H](C)[C@@]2(O)[C@@H](C=C(CO)C[C@]3(O)C(=O)C(C)=C[C@@H]23)[C@@H]2C(C)(C)[C@]12OC(C)=O` [PMA], in series [5], the “time for TEER increase to return to baseline” value stood at 8 h.

`Oc1ccc2c3c1O[C@H]1c4[nH]c5c(c4C[C@@]4(O)[C@@H](C2)N(CC2CC2)CC[C@]314)C[C@@]1(O)[C@H]2Cc3ccc(O)c4c3[C@@]1(CCN2CC1CC1)[C@H]5O4` [NOR, nor-binaltorphimine]: in series [4], the “U-50,488-enhanced PCN production” value is on record as “completely inhibited enhanced PCN production”.

Turning to “EGF: human cytokine tested for membrane binding”, in [1], the “binding to P. aeruginosa cells / cell membranes (ELISA)” value is “No binding was observed”.

Turning to `COC(=O)c1ccccc1N` [MA, methyl anthranilate], in series [4], the “ability of U-50,488 to enhance PCN production” value was “inhibited the ability of U-50,488 to enhance PCN production; also recorded: attenuated the ability of U-50,488 to enhance PCN production”.

For the molecule `CC(=O)N[C@H]1C(O)O[C@H](CO)[C@H](O)[C@@H]1O` (stereo partly drawn) [GalNAc, N-acetyl-D-galactosamine], the “adhesion of P. aeruginosa to intestinal epithelial cells” value in [6] is recorded as “markedly decreased adhesion to intestinal epithelial cells”.

Regarding `CCCC(=O)N[C@H]1CCOC1=O` [C4-HSL, C4-homoserine lactone], in series [4], the “PCN production in mvfR mutants” value is “none of these mutants produced PCN”, the “bacterial growth in TSB media” value is recorded as “Neither compound had an effect on bacterial growth” and the “cell density at onset of PCN production” value is “a shift in the production of PCN to lower cell densities”. Moreover, in series [7], the “PA-I expression in vitro” value is “induced PA-I expression” and the “induction of PA-I mRNA (Northern blot)” value was “Induction of PA-I mRNA was observed”.

For `Nc1ncnc2c1ncn2[C@@H]1O[C@H](COP(=O)(O)O)[C@@H](O)[C@H]1O` [AMP], the “PA-I promoter activity / expression” value in [3] is given as “no evident inducing effects”.

For `OC[C@H]1O[C@H](OCC2O[C@@H](O)[C@H](O)[C@@H](O)[C@@H]2O)[C@H](O)[C@@H](O)[C@H]1O` (stereo partly shown) [mellibiose], the “adhesion of P. aeruginosa to intestinal epithelial cells” value in [6] is listed as “markedly decreased adhesion to intestinal epithelial cells”.

Consider `C[C@@H](O)C(=O)O` [D-lactate], for which the “PA-I promoter activity / expression” value in [3] is “had no effect on PA-I promoter activity”.

`C[C@H](O)C(=O)O` [L-lactate]: the “PA-I promoter activity / expression” value in series [3] is recorded as “had no effect on PA-I promoter activity”.

Take `NC[C@H](O)c1ccc(O)c(O)c1` [norepinephrine]: the “PA-I expression in vitro” value in series [7] is reported as “did not change PA-I expression; also recorded: PA-I expression was not affected by this compound”.

For TGF-β, in [1], the “binding to P. aeruginosa cells / cell membranes (ELISA)” value is given as “No binding was observed”.

For the molecule `CN1CC[C@]23c4c5ccc(O)c4O[C@H]2[C@@H](O)C=C[C@H]3[C@H]1C5` [morphine], the “increase in PA-I mRNA” value in [7] is given as “four-fold increase”; in series [7] (PA27853, morphine 13 μM, quantitative RT-PCR), 4 fold. For the same molecule, the mortality result in series [8] (PA27853) is listed as “significant mortality”. The “mice developing severe sepsis” value in [8] (PA27853 1×10^8 cfu/ml daily) is recorded as 4/4.

`OC[C@H]1O[C@@H](n2cnc3c(O)ncnc32)[C@H](O)[C@@H]1O` [inosine]: the “timing of PA-I induction compared to adenosine” value in series [3] was “induced PA-I expression at an earlier time point and at lower cell densities (OD) compared to adenosine”. Further, in series [3] (less than adenosine), the “concentration inducing PA-I expression relative to adenosine” value is reported as 10 fold.

Regarding thrombin, in series [9], the decrease in resistance entry is “over 50%” and the “maximum decrease in resistance” value is recorded as “approximately 1200 ohm”. Further, the “intracellular calcium on stimulation of ECs” value in [10] is on record as “induced intracellular calcium spikes”.

“IFN-γ: recombinant human interferon gamma, immune cytokine”: the pyocyanin production entry in series [4] is “increased pyocyanin production”. In addition, in series [7], the “PA-I expression in vitro” value is reported as “induced PA-I expression”, the “concentration giving the greatest increase in PA-I protein” value worked out at 100 ng/mL and the “induction of PA-I mRNA (Northern blot)” value was “Induction of PA-I mRNA was observed”. For the same molecule, the “PA27853-induced decrease in Caco-2 TEER” value in [11] (5 hour time point, PA27853 alone decreased TEER by 60%) is reported as “enhanced in the presence of IFN-γ”. Moreover, the “Caco-2 TEER, IFN-γ alone” value in series [11] (without bacteria) is “Neither media nor IFN-γ alone altered TEER”. For the same molecule, in series [1], the “bacterial cells that bound IFN-γ” value is on record as 73%±3.2% and the “binding to P. aeruginosa cells / cell membranes (ELISA)” value is recorded as “avidly bound to whole fixed cells of P. aeruginosa in a dose-dependent manner”. In [12], the “binding to purified OprF” value is given as “purified OprF directly binds human IFN-γ”. Besides, in series [13] (PAO1), the “rhlI transcription (Northern blot)” value is given as “induced rhlI transcription”. Also, the C4-HSL synthesis result in series [13] (PAO1, 100 ng/ml IFN-γ) is on record as “C4-HSL synthesis was increased”. In addition, in series [3], the “PA-I promoter activity / expression” value is “Only IFN-γ induced PA-I promoter activity”.

Regarding `Nc1ncnc2c1ncn2[C@@H]1O[C@H](COP(=O)(O)OP(=O)(O)OP(=O)(O)O)[C@@H](O)[C@H]1O` [ATP], the “PA-I promoter activity / expression” value in [3] was “no evident inducing effects”.

B1: adenosine deaminase: enzyme added to deplete the media of adenosine (protein, UniProt P00813 2-363, looked up)
Adenosine deaminase: AQTPAFDKPKVELHVHLDGSIKPETILYYGRRRGIALPANTAEGLLNVIGMDKPLTLPDFLAKFDYYMPAIAGCREAIKRIAYEFVEMKAKEGVVYVEVRYSPHLLANSKVEPIPWNQAEGDLTPDEVVALVGQGLQEGERDFGVKARSILCCMRHQPNWSPKVVELCKKYQQQTVVAIDLAGDETIPGSSLLPGHVQAYQEAVKSGIHRTVHAGEVGSAEVVKEAVDILKTERLGHGYHTLEDQALYNRLRQENMHFEICPWSSYLTGAWKPDTEHAVIRLKNDQANYSLNTDDPLIFKSTLDTDYQMTKRDMGFTEEEFKRLNINAAKSSFLPEDEKRELLDLLYKAYGMPPSASAGQNL
Consider B1, for which the “PA-I expression after depletion of adenosine from HIF-1-α activated Caco-2 media” value in [3] (Caco-2) is listed as “even greater increase in PA-I expression”.

B2: PA-I: purified lectin/adhesin of P. aeruginosa, four 13 kDa subunits, binds D-galactose (protein, UniProt Q05097 2-122, looked up)
PA-I galactophilic lectin: AWKGEVLANNEAGQVTSIIYNPGDVITIVAAGWASYGPTQKWGPQGDREHPDQGLICHDAFCGALVMKIGNSGTIPVNTGLFRWVAPNNVQGAITLIYNDVPGTYGNNSGSFSVNIGKDQS
As for B2, the “TEER of epithelial cells” value in [14] (purified PA-I) is recorded as “decreased the TEER of epithelial cells to the same degree as P. aeruginosa”. Moreover, in series [14] (when TEER decreased below 50% of control by pure PA-I protein), the “increase in exotoxin A flux across MDCK cells” value is reported as “five-fold increase”.

Source of the values: US20090186949A1, “Method for Treating Endothelial and Epithelial Cell Disorders by Administering High Molecular Weight PEG-Like Compounds” (THE UNIVERSITY OF CHICAGO, priority 2006, published 2009).
